Test results reported in US20250161414A1, “METHOD FOR IMPROVING AUDITORY PERCEPTION USING A VIPR1 INHIBITOR” (ST. JUDE CHILDREN'S RESEARCH HOSPITAL, INC., priority 2022, published 2025).
Like-named read-outs stand apart in the source and are kept apart here. No end group written: not given here.

Tests used:
[1] = system: hM4Di-expressing cortical FS interneurons; assay: Current-clamp recording from hM4Di-expressing (mCitrine+) cells in acute cortical slices; format: cell-based, mouse; details: bath application
Procedure: Single-Cell Electrophysiology: Auditory Thalamocortical Brain Slices. Acute primary thalamocortical (TC) slices (400-μm thick) containing the left ACx and the left ventral part of the medial geniculate nuclei (MGv) of the thalamus were prepared as previously described (Chun et al. (2014) Science 344:1178-1182; Cruikshank et al. (2002) J. Neurophysiol. 87:361-384). Briefly, mouse brains were removed and placed in cold (4° C.) dissecting medium containing 125 mM choline-Cl, 2.5 mM KCl, 0.4 mM CaCl2, 6 mM MgCl2, 1.25 mM NaH2PO4, 26 mM NaHCO3, and 20 mM glucose (300-310 mosm), equilibrated with 95% O2/5% CO2. […] If recorded in current-clamp mode, pyramidal neurons were additionally verified as regularly spiking. […]
Single-Cell Electrophysiology: Whole-Cell Recording. Whole-cell recordings were made with patch pipettes (3-5 MOhm) using a Multiclamp 700B amplifier, digitized (10 kHz) with a Digidata 1440, and recorded using pCLAMP 10 software (all Molecular Devices, San Jose, CA). […] In voltage-clamp recordings, series resistance, input resistance, and holding current were monitored for stability. […] Input resistance and membrane resting voltage were monitored during recordings. […] Drugs were added to ACSF or locally applied via continuous pressure ejection from a large-diameter pipette placed in the slice near the recorded cell. […]

[2] = Acoustic startle response (ASR); format: in vivo, mouse; details: C21 i.p., either genotype (Gad2Cre; WT or Gad2Cre; CD+/-)
Procedure: (§1) Mouse Behavioral Tests: Frequency Discrimination (Auditory) Acuity Test. Pitch-discrimination acuity was assessed using pre-pulse inhibition (PPI) of the acoustic startle response via a hardware-computer interface (Kinder Scientific, Chula Vista, CA), according to established methods (Aizenberg et al. (2015) PLOS Biol. 13:e1002308; Blundon et al. (2017) Science 356:1352-1356). In brief, a background pure tone (16.4 kHz) was played at a sound pressure level (SPL) of 70 dB throughout the session, unless otherwise noted. Each session was split into four blocks. Block 1 included a 5-minute acclimation period in which the background tone was played. Block 2 included nine startle trials in which a 120-dB SPL, 20-ms white noise (WN) burst was played. Block 3 included prepulse trials and 10 startle-only trials in a pseudo-random order. Each pre-pulse trial included a 70-dB SPL 80-ms pre-pulse (pure-tone frequency was 0%, 1%, 2%, 4%, 8%, 16%, or 32% lower than that of the background tone), followed by a 120-dB SPL, 20-ms WN startle pulse, and then returned to the background tone after the startle. Every trial in Block 3 was presented 10 times. […] PPI percentage was calculated from Block 3 data as follows: [1−(pre-pulse trial/average startle only trial)]*100. […] FDT values were then analyzed using a t-test, a one-way ANOVA, or a paired t-test, as appropriate. […]

[3] = Frequency discrimination (auditory) acuity test, pre-pulse inhibition of acoustic startle response (FDT); format: in vivo, mouse; details: Gad2Cre, i.p., compared to vehicle
Procedure: as §1

ACx excitatory neurons = format: cell-based, mouse
[4] = system: FS interneurons in the ACx; assay: Whole-cell current-clamp recording of FS interneuron excitability (rheobase, current ramp) in auditory thalamocortical slices; format: cell-based, mouse; details: for PG 97-269 rheobase shift (difference between rheobase before and after application) / PG 97-269 rheobase shift: FS interneurons
ACx interneurons = assay: Whole-cell voltage-clamp recording of inward voltage-gated current threshold (voltage ramp) in ACx interneurons; format: cell-based, mouse; details: Gtf2ird1+/- and Gtf2ird1-/- cortical interneurons compared to WT interneurons

## c1ccc2c(c1)N=C(N1CCNCC1)c1ccccc1N2 [C21]
[1]
  number of action potentials elicited by depolarizing current injections: decreased
[2]
  ASR: not affected
[3]; CD+/- mice expressing hM4Di in ACx interneurons
  FDT (frequency-discrimination threshold): significantly increased
[3]; WT mice expressing hM4Di in ACx interneurons
  FDT (frequency-discrimination threshold): not different

## NC1=N[C@H](O)[C@H]2[C@H]3O[C@]4(O)O[C@@H]([C@@H](O)[C@@]2(N1)[C@@H]4O)[C@]3(O)CO [tetrodotoxin]
ACx excitatory neurons
  difference in sEPSC frequencies between WT and CD+/- ACx excitatory neurons after application: abolished

## [Acetyl-His^1, D-Phe^2, Lys^15, Arg^16, Leu^17] VIP (1-7)/GRF (8-27) hybrid with C-terminal amidation (HFDAVFTNSYRKVLKRLSARKLLQDIL; HELM PEPTIDE1{[ac].H.[dF].D.A.V.F.T.N.S.Y.R.K.V.L.K.R.L.S.A.R.K.L.L.Q.D.I.L.[am]}$$$$V2.0; SMILES CC[C@H](C)[C@H](NC(=O)[C@H](CC(=O)O)NC(=O)[C@H](CCC(N)=O)NC(=O)[C@H](CC(C)C)NC(=O)[C@H](CC(C)C)NC(=O)[C@H](CCCCN)NC(=O)[C@H](CCCNC(=N)N)NC(=O)[C@H](C)NC(=O)[C@H](CO)NC(=O)[C@H](CC(C)C)NC(=O)[C@H](CCCNC(=N)N)NC(=O)[C@H](CCCCN)NC(=O)[C@H](CC(C)C)NC(=O)[C@@H](NC(=O)[C@H](CCCCN)NC(=O)[C@H](CCCNC(=N)N)NC(=O)[C@H](Cc1ccc(O)cc1)NC(=O)[C@H](CO)NC(=O)[C@H](CC(N)=O)NC(=O)[C@@H](NC(=O)[C@H](Cc1ccccc1)NC(=O)[C@@H](NC(=O)[C@H](C)NC(=O)[C@H](CC(=O)O)NC(=O)[C@@H](Cc1ccccc1)NC(=O)[C@H](Cc1c[nH]cn1)NC(C)=O)C(C)C)[C@@H](C)O)C(C)C)C(=O)N[C@@H](CC(C)C)C(N)=O) [PG 97-269, VIPR1-specific antagonist]
[4]; ACx of Gtf2ird1+/- and Gtf2ird1-/- mice compared to WT mice
  effect on excitability of FS interneurons: either a diminished or no effect
[4]; CD+/- cortex, interneurons already hyperexcitable
  effect on excitability of FS interneurons: no additional effect
[4]; CD+/- mice
  PG 97-269 rheobase shift (difference between rheobase before and after application): not significantly different from 0
[4]; Gtf2ird1+/- mice
  PG 97-269 rheobase shift: did differ from 0
[4]; Gtf2ird1-/- mice
  PG 97-269 rheobase shift: did not significantly differ from 0
[4]; WT mice
  PG 97-269 rheobase shift (difference between rheobase before and after application): significantly less than 0
ACx interneurons
  PG 97-269 threshold shift: significantly reduced

## [Ala^11,22,28]-VIP (HSDAVFTDNYARLRKQMAVKKALNSILA; ends and bridges not checked; UniProt P01282 125-152, looked up, variant T11A Y22A N28A) [VIPR1-specific agonist]
[4]; WT or CD+/- interneurons, brain slices
  effect of VIPR1-specific agonist on interneurons: no significant effect

## picrotoxin
ACx excitatory neurons; L4 ACx excitatory neurons
  difference in sEPSC frequencies between WT and CD+/- ACx excitatory neurons after application: abolished
